Measurements as given in patent US20060046009A1, “Optical disk” (TDK Corporation, priority 2004, published 2006).

Assay: Solubility of the cyanine dyes in 2,2,3,3-tetrafluoro-1-propanol
Type: physicochemical
Settings: in 2,2,3,3-tetrafluoro-1-propanol (TFP)
Excerpt: FIGS. 1 and 2 are schematic fragmentary sectional views showing the vicinities of grooves in the optical disks according to Example 1 (counter ion: PF6^−) and Comparative Example 2 (counter ion: I^−), respectively. […] Thus, the optical disk in Example 1 has more uniform dye

SMILES | Solubility in TFP [mg/mL]
CN1/C(=C/C=C/C2=[N+](C)c3c(ccc4ccccc34)C2(C)C)C(C)(C)c2cc(Cl)ccc21 [Example 1] | 15
CN1/C(=C/C=C/C2=[N+](C)c3ccc4ccccc4c3C2(C)Cc2ccccc2)C(C)(C)c2c1ccc1ccccc21 (centres unmarked) [Example 2] | 8
